# Source: patent publication US11014888B2, “Crystalline form of alkynyl pyridine prolyl hydroxylase inhibitor and method for preparing same” (JIANGSU HENGRUI MEDICINE CO., LTD., priority 2017, dated 2021)
# Legend:
# [1] = Physical stability test (XRPD) of crystal forms under different placement conditions; type: physicochemical; conditions: for Physical stability (XRPD): 1 week; for Physical stability, conclusion from Table 7: C, D, H changed after one week, A, B, I did not change after one month
# Procedure: Physical stability test was carried out on the samples of crystal forms A, B, C, D, H and I under different placement conditions. The placement conditions were:
# 1. 40° C., humidity 75%, open/sealed;
# 2. 25° C., humidity 60%, open; and […]
# prolyl hydroxylase = conditions: as disclosed in WO2017059623; cited from earlier work
# [2] = Chemical stability under different humidity conditions, impurity content by HPLC; type: physicochemical; conditions: for Total impurity content (%): HPLC; for Impurity content level / Change of impurity content under various conditions: conclusion from Table 8; for Change of impurity content under various conditions: humidity 0%, 75%, 92.5% (25° C.), up to 30 days
# Procedure: The samples of crystal forms A, B and I were left to stand under different humidity conditions to test their chemical stability. The impurity content was determined by HPLC (HPLC detection conditions: ZORBAX SB-C18 4.6*150 mm 3.5 μm, mobile phase: TFA/methanol/water, detection wavelength: 223 nm).
# [3] = XRPD comparison of crystal forms before and after DSC heating; type: physicochemical
# Procedure: XRPD test was carried out on the samples of crystal forms A, B and I after the DSC test.
# [4] = XRPD comparison of crystal forms before and after the DVS test; type: physicochemical; conditions: for Crystal form change before and after the DVS test (XRPD): 25° C., water, 50%-95%-0%-95%-50% RH; for Stability / sensitivity to humidity: conclusion from XRPD before and after DVS test
# Procedure: XRPD test was carried out on the samples of crystal forms A, B and I after the DVS test, and the XRPD results of each crystal form before and after the DVS test were compared.
# DVS instrument parameters:
# Maximum step size: 360 minutes
# [5] = XRPD after standing at 0% humidity for 10 days; type: physicochemical
# Text: The samples of crystal forms A and B were left to stand under the condition of 0% humidity for 10 days, and subjected to XRPD to investigate the stability of the crystal form under the low humidity condition.
# [6] = Chemical stability under different placement conditions; type: physicochemical; conditions: 40° C., humidity 75%, open/sealed, 25° C., humidity 60%, or 2-6° C.
# [7] = Humidity 92.5% (25° C.), 5 days
# [8] = Humidity 92.5% (25° C.), 10 days
# [9] = Humidity 92.5% (25° C.), 30 days
compound,measurement,setting,value
"O=C(O)CNC(=O)c1ncc(C#CCOc2ccc(Cl)cc2)cc1O [crystal form D, 2-(3-hydroxy-5-(3-p-chlorophenoxypropyn-1-yl))picolinamido acetic acid]",Physical stability (XRPD),[1]; 4° C. sealed,x (x means that the crystal form changed)
same,Physical stability (XRPD),[1]; 25° C. open (humidity 60%),x (x means that the crystal form changed)
same,Physical stability (XRPD),[1]; 40° C. open (humidity 75%),x (x means that the crystal form changed)
same,Physical stability (XRPD),[1]; 40° C. sealed (humidity 75%),x (x means that the crystal form changed)
same,"Physical stability, conclusion from Table 7",[1],poor physical stability
"O=C(O)CNC(=O)c1ncc(C#CCOc2ccc(Cl)cc2)cc1O [crystal form C, 2-(3-hydroxy-5-(3-p-chlorophenoxypropyn-1-yl))picolinamido acetic acid]",Physical stability (XRPD),[1]; 4° C. sealed,x (x means that the crystal form changed)
same,Physical stability (XRPD),[1]; 25° C. open (humidity 60%),x (x means that the crystal form changed)
same,Physical stability (XRPD),[1]; 40° C. open (humidity 75%),x (x means that the crystal form changed)
same,Physical stability (XRPD),[1]; 40° C. sealed (humidity 75%),x (x means that the crystal form changed)
same,"Physical stability, conclusion from Table 7",[1],poor physical stability
"O=C(O)CNC(=O)c1ncc(C#CCOc2ccc(Cl)cc2)cc1O [crystal form H, 2-(3-hydroxy-5-(3-p-chlorophenoxypropyn-1-yl))picolinamido acetic acid]",Physical stability (XRPD),[1]; 40° C. open (humidity 75%),x (x means that the crystal form changed)
same,"Physical stability, conclusion from Table 7",[1],poor physical stability
"O=C(O)CNC(=O)c1ncc(C#CCOc2ccc(Cl)cc2)cc1O [compound of formula (I), 2-(3-hydroxy-5-(3-p-chlorophenoxypropyn-1-yl))picolinamido acetic acid]",Inhibition effect on prolyl hydroxylase,prolyl hydroxylase,excellent inhibition effect
"O=C(O)CNC(=O)c1ncc(C#CCOc2ccc(Cl)cc2)cc1O [crystal form I, 2-(3-hydroxy-5-(3-p-chlorophenoxypropyn-1-yl))picolinamido acetic acid]",Total impurity content (%),[2]; Day 0,1.56%
same,Total impurity content (%),"[2]; Humidity 0% (25° C.), 5 days",1.57%
same,Total impurity content (%),"[2]; Humidity 0% (25° C.), 10 days",1.58%
same,Total impurity content (%),"[2]; Humidity 0% (25° C.), 30 days",2.06%
same,Total impurity content (%),"[2]; Humidity 75% (25° C.), 5 days",1.72%
same,Total impurity content (%),"[2]; Humidity 75% (25° C.), 10 days",1.78%
same,Total impurity content (%),"[2]; Humidity 75% (25° C.), 30 days",1.88%
same,Total impurity content (%),[2]; [7],1.90%
same,Total impurity content (%),[2]; [8],2.24%
same,Total impurity content (%),[2]; [9],2.22%
same,Impurity content level,[2],relatively high impurity content
same,Change of impurity content under various conditions,[2],changed significantly
same,Crystal form change after DSC heating (XRPD),[3]; after heating to 105° C.,changed
same,Crystal form change before and after the DVS test (XRPD),[4],changed
same,Stability / sensitivity to humidity,[4],most sensitive to humidity
same,"Physical stability, conclusion from Table 7",[1],good physical stability
"O=C(O)CNC(=O)c1ncc(C#CCOc2ccc(Cl)cc2)cc1O [crystal form A, 2-(3-hydroxy-5-(3-p-chlorophenoxypropyn-1-yl))picolinamido acetic acid]",Total impurity content (%),[2]; Day 0,1.88%
same,Total impurity content (%),"[2]; Humidity 0% (25° C.), 5 days",1.89%
same,Total impurity content (%),"[2]; Humidity 0% (25° C.), 10 days",2.00%
same,Total impurity content (%),"[2]; Humidity 0% (25° C.), 30 days",2.14%
same,Total impurity content (%),"[2]; Humidity 75% (25° C.), 5 days",1.92%
same,Total impurity content (%),"[2]; Humidity 75% (25° C.), 10 days",1.97%
same,Total impurity content (%),"[2]; Humidity 75% (25° C.), 30 days",2.17%
same,Total impurity content (%),[2]; [7],1.96%
same,Total impurity content (%),[2]; [8],1.99%
same,Total impurity content (%),[2]; [9],2.05%
same,Impurity content level,[2],relatively high impurity content
same,Change of impurity content under various conditions,[2],changed significantly
same,Crystal form change under low humidity (XRPD),[5],changed
same,Crystal form change after DSC heating (XRPD),[3]; after heating to 105° C.,changed
same,Crystal form change before and after the DVS test (XRPD),[4],"did not change, but the crystallinity thereof decreased"
same,"Physical stability, conclusion from Table 7",[1],good physical stability
"O=C(O)CNC(=O)c1ncc(C#CCOc2ccc(Cl)cc2)cc1O [crystal form B, 2-(3-hydroxy-5-(3-p-chlorophenoxypropyn-1-yl))picolinamido acetic acid]",Chemical stability under different placement conditions,[6],excellent chemical stability
same,Total impurity content (%),[2]; Day 0,0.95%
same,Total impurity content (%),"[2]; Humidity 0% (25° C.), 5 days",0.97%
same,Total impurity content (%),"[2]; Humidity 0% (25° C.), 10 days",1.03%
same,Total impurity content (%),"[2]; Humidity 0% (25° C.), 30 days",1.09%
same,Total impurity content (%),"[2]; Humidity 75% (25° C.), 5 days",0.94%
same,Total impurity content (%),"[2]; Humidity 75% (25° C.), 10 days",0.98%
same,Total impurity content (%),"[2]; Humidity 75% (25° C.), 30 days",1.06%
same,Total impurity content (%),[2]; [7],0.98%
same,Total impurity content (%),[2]; [8],0.98%
same,Total impurity content (%),[2]; [9],1.02%
same,Impurity content level,[2],low impurity content
same,Change of impurity content under various conditions,[2],substantially did not increase
same,Crystal form change under low humidity (XRPD),[5],did not change
same,Crystal form change after DSC heating (XRPD),[3]; after heating to 135° C.,did not change
same,Crystal form change before and after the DVS test (XRPD),[4],did not change
same,Stability / sensitivity to humidity,[4],most stable to humidity
same,"Physical stability, conclusion from Table 7",[1],good physical stability
